In paper PMC6326535, “Total Synthesis of Xanthoangelol B and Its Various Fragments: Toward Inhibition of Virulence Factor Production of Staphylococcus aureus” (Journal of Medicinal Chemistry, 2018):
Where two headings read alike, the source gives them in different places.

Columns and labels:
Gram-positive bacteria = details: cited from earlier work
S. aureus USA300 [1] = assay type: in vivo, Galleria mellonella; details: for bacterial burden compared to the vehicle control: dose of approximately 1 mg/kg
saeS knockout S. aureus = assay type: in vivo, Galleria mellonella; details: for reduction in CFU compared to the wild type infection group: saeS knockout infection, after 72 h
SaeRS TCS = assay: microbe, parasite or virus in culture; assay type: cell-based, Staphylococcus aureus USA300; details: for IC50 / IC90: Staphylococcus aureus; for IC50: USA300, 8 h, read-out: IC50 against the SaeRS GFP reporter; for IC90: read-out: IC90 for the SaeRS GFP reporter; for inhibition of the SaeRS TCS: at 20 μM
[2] = tested on: methicillin-resistant S. aureus USA300; assay: cells; assay type: cell-based, Staphylococcus aureus
S. aureus USA300 [3] = assay type: in vivo, Galleria mellonella; details: 72 h; for survival compared to the vehicle control: 5 × 10^6 CFU
[4] = tested on: hla, aur, γ-hemolysin, staphylokinase, sarA; assay type: cell-based, Staphylococcus aureus
[5] = target: minimal kinase domain of SaeS (Staphylococcus aureus, UniProt Q840P7); assay: biochemical
minimal kinase domain of SaeS, sequence (Q840P7 118-351): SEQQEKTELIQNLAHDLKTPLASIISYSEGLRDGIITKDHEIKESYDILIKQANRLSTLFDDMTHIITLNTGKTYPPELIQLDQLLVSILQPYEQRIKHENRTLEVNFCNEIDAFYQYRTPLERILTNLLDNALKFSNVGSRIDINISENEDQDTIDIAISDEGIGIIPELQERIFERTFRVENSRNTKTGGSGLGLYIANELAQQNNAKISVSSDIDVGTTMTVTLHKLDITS

[6] = target: SaeS phosphotransferase (PT) activity (Staphylococcus aureus, UniProt Q840P7); assay type: biochemical; details: radioactively phosphorylated SaeS in the presence of SaeR
SaeS phosphotransferase (PT) activity, sequence (Q840P7 118-351): as above

AgrC = AgrC (Staphylococcus aureus, UniProt O07911); assay type: biochemical; details: for IC50: 5 μM protein, autokinase activity
AgrC, sequence (O07911 206-430 limits assumed): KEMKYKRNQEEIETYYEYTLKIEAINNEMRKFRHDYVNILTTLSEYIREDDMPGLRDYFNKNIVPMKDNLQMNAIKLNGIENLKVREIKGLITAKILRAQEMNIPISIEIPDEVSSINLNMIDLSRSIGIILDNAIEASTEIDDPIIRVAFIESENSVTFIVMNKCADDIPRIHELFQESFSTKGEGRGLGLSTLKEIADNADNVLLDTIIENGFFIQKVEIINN

S. aureus USA300 [7] = details: for growth of S. aureus: at (up to) 64 μM, up to 20 h; for bacterial growth: 8 h
Method: Figure 1 Various concentrations of compounds were used to treat the USA300-Phlam GFP strain, and GFP expression was analyzed at 8 h. […] All the experiments were performed in triplicates, and significance was compared with control (no treatment) using one-way ANOVA.
56 at the concentration in the range from 2 μM to 64 μM. The cell density w as m onitored as the
optical density at 600 nm.
B act eri al growt h for 8 h i n t he presence of PM-56; C, B acterial growth for 20 h in the presence of
xant hoangel ol B 1; D, B act eri al growt h for 20 hours i n t he presence of PM-56. All the experi m ents
were perform ed in triplicates.

HeLa cells [8] = assay: LDH release cytotoxicity assay; assay type: cell-based; details: for IC50: Homo sapiens, HeLa, 72 h, read-out: IC50 for HeLa cell survival
kinase domain of SaeS = kinase domain of SaeS (Staphylococcus aureus, UniProt Q840P7); assay: biochemical
kinase domain of SaeS, sequence (Q840P7 118-351): as the sequence (Q840P7 118-351) above
Method: Next, we attempted to measure the direct binding of 1 and PM-56 with SaeS using the intrinsic fluorescence quenching assay. Since SaeS contains seven Tyr (and zero Trp) residues, the Tyr fluorescence at 306 nm was monitored before and after binding of 1 and PM-56. The reduction of fluorescence upon ligand binding was expressed as the percent fluorescence quenching, and the Kd value was calculated by nonlinear regression fitting (Figure S9).
Purified recom binant SaeS (1 µM ) w as incubated w ith various concentrations
of ei t her (A ) 1 or (B ) PM-56 for 15 m in at room tem perature. U pon excitation at 276 nm,
reductions of SaeS intensities at an emission peak of 306 nm w ere recorded and plotted against the
chem ical concentrations. D ata points were averaged from three independent m easurem ents and
expressed as m eans (dots) ± standard deviations of m eans (w hiskers). Solid lines represent the […]
The intrinsic fluorescence quenching assay to determine the binding affinities of […]
fluorescence of t h e kinase dom ain of SaeS w as recorded at an emission peak of 306 nm upon […]
Eclipse fluorescence spectrophotom eter (A gilent Technologies, U SA ). […]
chem icals but w ithout SaeS w ere used as blanks for correcting the fluorescence intensities. […]
by plotting the reductions of SaeS fluorescence intensity at each chem ical treatm ent against the […]

HeLa cells [9] = tested on: HeLa cells
[10] = target: minimal kinase domain of SaeS / MBP-SaeS (Staphylococcus aureus, UniProt Q840P7); assay type: binding; details: 1.0 mM compound, 0.1 mM SaeS or 30 μM MBP-SaeS
minimal kinase domain of SaeS / MBP-SaeS, sequence (Q840P7 118-351): as above

[11] = set-up: method as in PMID 22452965; details: mice, single dose study; cited from earlier work
[12] = Staphylococcus aureus, USA300, Erythrocyte, 8 h, read-out: IC50 for the inhibition of erythrocyte hemolysis, human RBCs, 8 h incubation of USA300 with compound
[13] = read-out: IC50 for the inhibition of erythrocyte hemolysis, human RBCs, 8 h incubation of USA300 with compound

Row | Compound | antibacterial activity against Gram-positive bacteria (Gram-positive bacteria) | bacterial burden compared to the vehicle control (S. aureus USA300 [1]) | inhibitory activity against SaeRS (SaeRS TCS) | IC50 (SaeRS TCS) | IC90 (SaeRS TCS) | IC50 [2, 12] | protection from hemolysis ([2]; at 4 μM) | protection from hemolysis ([2]; at 8 μM) | IC50 [2, 13] | level of sarA transcription [4] | IC50 [5] | inhibition of phosphotransferase (PT) activity [6] | IC50 (AgrC) | growth of S. aureus (S. aureus USA300 [7]) | cytotoxicity IC50 relative to IC50 for the GFP-reporter inhibition (HeLa cells [8]) | IC50 (HeLa cells [8]) | Kd (kinase domain of SaeS) | visible toxicity to HeLa cells (HeLa cells [9]) | inhibition of the SaeRS TCS (SaeRS TCS) | other results
1 | 4-hydroxyderricin | shown to have an antibacterial activity |  |  |  |  |  |  |  |  |  |  |  |  |  |  |  |  |  |  | 
2 | C=C(C)C(O)CC/C(C)=C/Cc1c(O)ccc(C(=O)/C=C/c2ccc(O)cc2)c1O (centres unmarked) [Compound 1, Xanthoangelol B] |  | sharp decrease | excellent inhibitory activity | 2.1 µM | 8 µM | 4.62 µM | visible protection | comparable level of protection to that of saeS knockout mutants | 4.6 µM | not significantly affected | 220 µM | no inhibition was observed | 339 µM | severely inhibited | 10 fold | 19.7 µM | 40 µM | did not produce substantially visible toxicity |  | decline of bacterial burden (S. aureus USA300 [1]; 4.1 mg/kg): 1.72 log10 CFU/worm; survival rate of G. mellonella infected with the knockout strain (saeS knockout S. aureus; 2.042 mg/kg body weight every 12 h for 72 h): 70%; reduction in CFU compared to the wild type infection group (saeS knockout S. aureus; 2.042 mg/kg): 76.8%; survival compared to the vehicle control (S. aureus USA300 [3]; 2.0 mg/kg every 12 h): 3.5 fold; survival (S. aureus USA300 [3]; 3.1 mg/kg every 12 h): 90%; survival (S. aureus USA300 [3]; 4.1 mg/kg every 12 h): complete survival; lower activity for AgrC compared to that for SaeS (AgrC): 1.5 fold; bacterial growth (S. aureus USA300 [7]; at up to 8 μM): did not disrupt bacterial growth; concentration from which growth inhibition started (S. aureus USA300 [7]; growth followed up to 20 h): ≥ 16 µM
3 | C=C(C)C(O)CC/C(C)=C/Cc1c(O)ccc(C(=O)CC(O)c2ccc(O)cc2)c1O (centres unmarked) [PM-56, 1-(2,4-Dihydroxy-3-(6-hydroxy-3,7-dimethylocta-2,7-dien-1-yl)phenyl)-3-hydroxy-3-(4-hydroxyphenyl)propan-1-one] |  | sharp decrease | excellent inhibitory activity | 4.3 µM | 10 µM | 3.97 µM | visible protection | comparable level of protection to that of saeS knockout mutants | 4 µM | not significantly affected | 160 µM | no inhibition was observed | 140 µM | comparable growth to the control | 7 fold | 28.9 µM | 6.8 µM | did not produce substantially visible toxicity |  | decline of bacterial burden (S. aureus USA300 [1]; 4.3 mg/kg): 1.84 log10 CFU/worm; survival rate of G. mellonella infected with the knockout strain (saeS knockout S. aureus; 2.131 mg/kg body weight every 12 h for 72 h): 90%; reduction in CFU compared to the wild type infection group (saeS knockout S. aureus; 2.131 mg/kg): 83.3%; survival compared to the vehicle control (S. aureus USA300 [3]; 2.1 mg/kg every 12 h): 3.5 fold; survival (S. aureus USA300 [3]; 3.2 mg/kg every 12 h): 90%; survival (S. aureus USA300 [3]; 4.3 mg/kg every 12 h): complete survival; higher activity than 1 for SaeS [5]: 1.4 fold; binding to SaeS by 1D CPMG and 1D STD NMR [10]: specifically binds to SaeS; higher activity than 1 for AgrC (AgrC): 2.4 fold; bacterial growth (S. aureus USA300 [7]; at up to 16 μM): did not disrupt bacterial growth
4 | COc1ccc(C(=O)/C=C/c2ccc(O)cc2)c(O)c1C/C=C(\C)CCC=C(C)C [xanthoangelol F, reference compound] |  |  |  |  |  |  |  |  |  |  |  |  |  |  |  |  |  |  | did not show inhibitory activity | 
5 | CC(C)=CCC/C(C)=C/Cc1c(O)ccc(C(=O)/C=C/c2ccc(O)cc2)c1O [xanthoangelol] | shown to have an antibacterial activity |  |  |  |  |  |  |  |  |  |  |  |  |  |  |  |  |  | did not show inhibitory activity | absorption and distribution after oral administration [11]: absorbed and distributed rapidly; absorption efficiency [11]: low
